Experimental data from US10172816B2, “Method of treating chronic obstructive pulmonary disease (CPD) with verproside” (YUNGJIN PHARMACEUTICAL CO., LTD, priority 2013, dated 2019).

Experiments:
[1] = test system: inflammatory immunocytes and neutrophils in BALF; test: COPD mouse model (LPS+CS, i.t.): immunocytes, neutrophils and T lymphocytes in BALF; format: in vivo, BALB/c mice; conditions: 15 mg/kg, p.o.
Method: Specific pathogen-free male BALB/c mice (about 18-20 g), aged 8 weeks, which were routinely screened serologically for relevant respiratory pathogens, were purchased from ORIENT Co. (www.orient.co.kr, Seoul, Korea) and bred allowing to access freely to feed and water in breeding room controlling the temperature of 22±2° C., and humidity of 55±15% at the light-dark cycle for 12 hours and acclimated with the experimental environment for 1 week. […] 8 weeks aged BALB/c male mice was anaesthetized with 7% chloral hydrate and 100 μl of LPS+CS mixture {LPS (100 μg/ml)+standard cigarette extract (Cigarette smoking (CS), 4 mg/ml)=1:1} was inhaled to mice (i.t.) for three weeks once a week to prepare COPD animal model. Briefly, 100 μl of LPS+CS mixture was evenly inhaled to nose and mouth of fastened mice (i.t). […] After the end of experiment, the blood, BALF, and pneumonocyte of each mice were isolated and collected to test. After blood collection, 1 ml of FBS-free/DMEM medium contained in injector was injected to the trachea of autopsied mice, and the mice was fixed with string to circulate the blood three times and isolate the cell from BALF. […] The isolated PBMCs, BAL (Bronchoalveolar lavage), and pneumocyte were adjusted to 5×10^5 cells and performed to immunofluorescence staining at 4° C. PE-anti-CD3e (553064, BD Pharmingen, USA), FITC-anti-CD8 (553031, BD Pharmingen, USA), PE-anti-CD4 (553047, BD Pharmingen, USA), PE-anti-Gr-1 (553128, BD Pharmingen, USA), and FITC-anti-neutrophil (ab55453, Abcam, UK) were added thereto, respectively, and reacted for 30 mins in ice. After the reaction, the cells were washed with phosphate buffered physiological saline solution more than three times and the cell frequency (%) of CD3^+CD4^+& CD3^+CD8^+, and Gr-1^+Neutrophil^+ was determined using by Cell Quest program (643274, BD Biosciences, USA) of the flow cytometer (FACSCalibur, Becton, Dickinson, USA) and the absolute total number in each tissue was calculated by applying total cells.

Mucin 5A/C = test: Acrolein-induced Mucin 5A/C expression in A549 cells (RT-PCR); format: cell-based, human; conditions: pre-treated 1 hour, then 30 nM acrolein, dose dependent
Method: The diluted A549 cell line (ATCC, CCL-185) with DMEM medium supplemented with 5% phenol red and FBS (Fetal Bovine Serum) was seeded in 6 well plates (4×10^5 cells/well) to adhere thereto for a night, and 20 and 40 microgram/ml of ATC2 extract were treated with A549 cell line for 1 hours. 30 nM acrolein was treated therewith to induce Mucin 5A/C expression. The medium was removed the cell, washed with PBS solution and homogenized with Trizol (Invitrogen, CA, USA) for the isolation of ribonucleic acids from the cells for 5 mins. the cells were collected, transferred to centrifugal separator, completely mixed with chloroform for 15 seconds, left alone for 3 mins and centrifuged for 15 mins at the speed of 14,000 rpm. The supernatant containing ribonucleic acid was transferred to new tube and mixed with isopropylalcohol for 10 mins. The solution was centrifuged to discard the supernatant and 75% ethanol was added to the precipitate. The precipitate was centrifuged for 5 mins at the speed of 10,000 rpm and the supernatant was discarded. The precipitated ribonucleic acid was dried at room temperature for 20 mins. […] After the quantification of ribonucleic acid, the complementary DNA was synthesized using by 1 microgram of RNA and RT-kit (Omniscript RT kit, Qiagen, USA) and the synthetic cDNA was used as a template. […]

TNF-α = test: COPD mouse model (LPS+CS): TNF-α in BALF by ELISA; format: in vivo, BALB/c mice; conditions: 15 mg/kg, p.o.
Method: 8 weeks aged BALB/c male mice was anaesthetized with 7% chloral hydrate and 100 μl of LPS+CS mixture {LPS (100 μg/ml)+standard cigarette extract (Cigarette smoking (CS), 4 mg/ml)=1:1} was inhaled to mice (i.t.) for three weeks once a week to prepare COPD animal model. Briefly, 100 μl of LPS+CS mixture was evenly inhaled to nose and mouth of fastened mice (i.t). […] After the end of experiment, the blood, BALF, and pneumonocyte of each mice were isolated and collected to test. The level of IL-1β, IL-6, TNF-a, IL-17, MCP-1, and GRO-a (BioSource, USA) in BALF isolated from mice was determined by enzyme-linked immuno-sorbent assay. Respective antibodies against L-1β, IL-6, TNF-a, IL-17, MCP-1, and GRO-a were diluted with a coating buffer solution (291195, R&D System, USA), coated on a microwell and left alone for overnight at 4° C. Each well was washed three times with washing buffer solution and 100 μl of 10-fold diluted serum was added thereto. […] The solution was left alone for 30 mins in shadow and added with 50 μl of stop solution (DY994, R&D system, USA) to determine the absorbance using by ELISA leader at 450 nm (340PC384, Molecular Devices, USA).

[2] = test system: neutrophils and total immunocytes in BALF; test: COPD rat model (cigarette smoke): immunocytes in BALF; format: in vivo, Sprague-Dawley rat; conditions: ATC2 and Verproside 30 mg/kg
Method: 3 kinds of test samples, i.e., ATC2 (30 mg/kg), Verproside (30 mg/kg), Daxas (main ingredient: Roflumilast, 1 mg/kg) were dissolved in PBS and uses as test samples.
ATC2, Verproside, Daxas were orally administrated to the mice at the dose of 4 mg/kg, 1 hour before prior the intratracheal instillation (i.t.).
The exposure of cigarette smoke was performed by using a cigarette smoke generator (CH Technology Corp. USA). In a detail, 1 hour after the orally administration of test samples using by Head/nose-only exposure unit (TSE System, German) according to nose-only method, the cigarette smoke was exposed by inhalation for 3 days every hour. 8 puffs (volume 35 ml, duration 2 sec, interval 1 time/min) per one piece of standard cigarette was performed in the experiment. The tested groups were divided into five groups, i.e., (i) normal group with no treatment (normal control, NC), (ii) control group exposed with cigarette smoke (COPD), (iii) test sample group treated with Daxas (1 mg/kg, p.o) 1 hr prior to cigarette smoke exposure (DA), (iv) test sample group treated with ATC2 (30 mg/ml, p.o) 1 hr prior to cigarette smoke exposure (YPL), and (v) test sample group treated with Verproside (30 mg/ml, p.o) 1 hr prior to cigarette smoke exposure (Ver). After the end of experiment, the blood, BALF, and pneumonocyte of each rat were isolated and collected to test.
After finishing the experiment, rats were anesthetized with Zoletil50 (3VX9, Virbac, France, p.o) and the blood was delivered through caudal veins. In order to isolate BALF from lung, the bronchus of right lung was ligated with suture and then performed to tracheotomy. IV-use catheter (16 GA, 3S-Cath, Dukwoo, Korea) was put into the bronchus, and both of bronchus and catheter (16 GA, 3S-Cath, Dukwoo, Korea) were fixed with suture. […] The light lung ligated with suture was isolated, fixed with 10% neutral formalin solution, and the remaining lung tissue was reserved in refrigerator at −70° C. […]

O=C(O[C@H]1[C@@H]2C=CO[C@@H](O[C@@H]3O[C@H](CO)[C@@H](O)[C@H](O)[C@H]3O)[C@@H]2[C@@]2(CO)O[C@@H]12)c1ccc(O)c(O)c1 [verproside, 6-O-(3,4-dihydroxybenzoyl) catalpol]
number of total immunocyte in BALF compared with control group [1]: sharply reduced
reduction of number of neutrophils (Diff-Quik stained, cytospin) in BALF compared with control group [1]: more than 94.2%
reduction of total absolute cell number of CD4+ T cell in BALF compared with control group [1]: more than 32.9%
reduction of total absolute cell number of CD8+ T cell in BALF compared with control group [1]: not significantly different
reduction of total absolute cell number of Neutrophils+Gr-1+ cell in BALF compared with control group [1]: more than 93.9%
expression of Mucin 5A/C (mRNA, RT-PCR) (Mucin 5A/C): inhibited
reduction of TNF-α in BALF compared with control group (TNF-α): more than 42.2%
ratio of the number of neutrophils to that of immunocytes (counting 300 immunocytes) compared with COPD induced group ([2]; Daxas 1 mg/kg, p.o.): remarkably reduced ratio
level of neutrophils in BALF compared with COPD induced group ([2]; Daxas 1 mg/kg, p.o. 1 hr prior to cigarette smoke exposure): remarkably reduced level
level of total immunocytes in BALF compared with COPD induced group ([2]; p.o. 1 hr prior to cigarette smoke exposure): remarkably reduced level
